In ChEMBL document CHEMBL3885861, “Open TG-GATES”:

Organism: Rattus norvegicus
Assay: Open TG-GATES - Regimen: Single
Format: toxicity, organism-based, Sprague-Dawley
Set-up: regimen Single, gender Male, age 6 weeks
Conditions: in vivo, po, 5 mg/kg, route gavage, dose level Low; for APTT / Bas / Eos / Fbg / Hb / Ht / Lym / MCH / MCHC / MCV / Mono / Neu / PT / Plat / RBC / Ret / WBC: tissue Blood; for LIVER: tissue Liver; for A/G / ALP / ALT / AST / BUN / CRE / Ca / Cl / DBIL / GLC / IP / K / LDH / Na / PL / RALB / TBIL / TC / TG / TP / gamma-GTP: tissue Plasma

## C=C(C)[C@H]1Cc2c(ccc3c2O[C@@H]2COc4cc(OC)c(OC)cc4[C@@H]2C3=O)O1 [ROTENONE]
3 h
  TERMINAL_BW: 199.1 g
  APTT: 15.7 s
  Bas: 0%
  Eos: 1%
  Fbg: 223 mg/dL
  Hb: 12.6 g/dL
  Ht: 38.3%
  Lym: 77.2%
  MCH: 21.2 pg
  MCHC: 33%
  MCV: 64.3 fL
  Mono: 7.2%
  Neu: 14.6%
  PT: 12.3 s
  Plat: 119.4 x10_4/uL
  RBC: 595.4 x10_4/ul
  Ret: 8.6%
  WBC: 104.4 x10_2/uL
  LIVER: 9.3 g
  A/G: 2.1
  ALP: 1388.6 IU/L
  ALT: 39 IU/L
  AST: 64.8 IU/L
  BUN: 13.8 mg/dL
  CRE: 0.4 mg/dL
  Ca: 11.5 mg/dL
  Cl: 103.8 meq/L
  DBIL: 0.012 mg/dL
  GLC: 189.2 mg/dL
  IP: 8.4 mg/dL
  K: 4.3 meq/L
  LDH: 112.6 IU/L
  Na: 140.6 meq/L
  PL: 142.2 mg/dL
  RALB: 3.7 g/dL
  TBIL: 0.04 mg/dL
  TC: 89.6 mg/dL
  TG: 74.8 mg/dL
  TP: 5.4 g/dL
  gamma-GTP: 1 IU/L
6 h
  TERMINAL_BW: 191.9 g
  APTT: 17.5 s
  Bas: 0%
  Eos: 1%
  Fbg: 227.6 mg/dL
  Hb: 12.9 g/dL
  Ht: 39.6%
  Lym: 77.4%
  MCH: 21 pg
  MCHC: 32.8%
  MCV: 64.1 fL
  Mono: 4.2%
  Neu: 17.8%
  PT: 12.6 s
  Plat: 127.8 x10_4/uL
  RBC: 618.2 x10_4/ul
  Ret: 8.4%
  WBC: 86.8 x10_2/uL
  LIVER: 8.4 g
  A/G: 2.3
  ALP: 1155.6 IU/L
  ALT: 36.8 IU/L
  AST: 67.6 IU/L
  BUN: 10.6 mg/dL
  CRE: 0.4 mg/dL
  Ca: 11 mg/dL
  Cl: 104.6 meq/L
  DBIL: 0.01 mg/dL
  GLC: 182.8 mg/dL
  IP: 8.9 mg/dL
  K: 4.3 meq/L
  LDH: 86.6 IU/L
  Na: 140 meq/L
  PL: 133.4 mg/dL
  RALB: 3.7 g/dL
  TBIL: 0.046 mg/dL
  TC: 82.2 mg/dL
  TG: 48.6 mg/dL
  TP: 5.4 g/dL
  gamma-GTP: 1 IU/L
9 h
  TERMINAL_BW: 190.6 g
  APTT: 16.3 s
  Bas: 0%
  Eos: 1%
  Fbg: 218.6 mg/dL
  Hb: 12.9 g/dL
  Ht: 39.5%
  Lym: 66.8%
  MCH: 21.2 pg
  MCHC: 32.6%
  MCV: 65.1 fL
  Mono: 10.6%
  Neu: 22.2%
  PT: 12.3 s
  Plat: 123.8 x10_4/uL
  RBC: 606.2 x10_4/ul
  Ret: 8.4%
  WBC: 86.2 x10_2/uL
  LIVER: 8.1 g
  A/G: 2.4
  ALP: 1273.6 IU/L
  ALT: 29.2 IU/L
  AST: 63 IU/L
  BUN: 10.2 mg/dL
  CRE: 0.3 mg/dL
  Ca: 11.1 mg/dL
  Cl: 104.6 meq/L
  DBIL: 0.008 mg/dL
  GLC: 183.4 mg/dL
  IP: 10.2 mg/dL
  K: 4.2 meq/L
  LDH: 102.8 IU/L
  Na: 139.4 meq/L
  PL: 129.6 mg/dL
  RALB: 3.8 g/dL
  TBIL: 0.044 mg/dL
  TC: 78 mg/dL
  TG: 42.4 mg/dL
  TP: 5.4 g/dL
  gamma-GTP: 1 IU/L
24 h
  TERMINAL_BW: 213.3 g
  APTT: 15.6 s
  Bas: 0%
  Eos: 1%
  Fbg: 208.6 mg/dL
  Hb: 12.8 g/dL
  Ht: 39%
  Lym: 69%
  MCH: 21.2 pg
  MCHC: 32.8%
  MCV: 64.7 fL
  Mono: 10%
  Neu: 19.8%
  PT: 12 s
  Plat: 123.2 x10_4/uL
  RBC: 602.8 x10_4/ul
  Ret: 8.5%
  WBC: 98.2 x10_2/uL
  LIVER: 10.5 g
  A/G: 2.4
  ALP: 1417.6 IU/L
  ALT: 40.4 IU/L
  AST: 71 IU/L
  BUN: 15.6 mg/dL
  CRE: 0.4 mg/dL
  Ca: 11.5 mg/dL
  Cl: 103.2 meq/L
  DBIL: 0.014 mg/dL
  GLC: 187.2 mg/dL
  IP: 7.7 mg/dL
  K: 4.6 meq/L
  LDH: 106.6 IU/L
  Na: 139.4 meq/L
  PL: 158.8 mg/dL
  RALB: 3.9 g/dL
  TBIL: 0.034 mg/dL
  TC: 86.2 mg/dL
  TG: 146.8 mg/dL
  TP: 5.6 g/dL
  gamma-GTP: 0.6 IU/L
